# Conditions: pH 7
substance,measurement,value
poly(ethylene glycol) chloroethyl sulfone [PEG chloroethyl sulfone],"stability in water, NMR after extraction",stable

# Reference: patent publication US7214366B2, “Isolatable, water soluble, and hydrolytically stable active sulfones of poly(ethylene glycol) and related polymers for modification of surfaces and molecules” (Nektar Therapeutics AL, Corporation, priority 1993, dated 2007)
